# Patent publication US8486901B2 (priority 2009, dated 2013)
# “And” between values parts separate entries of the source, which are not always exact repeats. Equal values may be shown once.
# Test system: Kunming mice
# Settings: mouse, in vivo
smiles,measurement,value
"N=C1NC(O)C2C3OC4(O)OC(C(O)C2(N1)[C@@H]4O)C3(O)COC1OC(CO)C(O)C(O)C1O (stereo partly drawn) [Formula 11-Gal-TTX, 11-galactopyranosyl-TTX]",Effect on pain (result in words),inhibitory effect on pain
same,Inhibition rate (%),60.6% and 30.3% and 51.7%
same,Number of writhes,12.50 ± 4.7 and 22.10 ± 6.4 and 15.30 ± 6.4
